Test results: patent US20080125432A1 (Devgen NV, priority 2004, published 2008)
Where two headings read alike, the source gives them in different places.

How the values were obtained:
[1] = target: T1, human Kv4.3/KChIP2.2 potassium channel (Homo sapiens, UniProt Q9UK17); experiment: Whole cell patch clamp, CHO-K1 cells stably expressing human Kv4.3/KChIP2.2; type: cell-based; details: for IC50: Kv4.3 mediated current, charge, patch clamp, read-out: Kv4.3 charge IC50; for remaining activity at 1 µM: CHO-K1
T1 construct: expressed in transfected cells
T1 sequence (Q9UK17 1-655): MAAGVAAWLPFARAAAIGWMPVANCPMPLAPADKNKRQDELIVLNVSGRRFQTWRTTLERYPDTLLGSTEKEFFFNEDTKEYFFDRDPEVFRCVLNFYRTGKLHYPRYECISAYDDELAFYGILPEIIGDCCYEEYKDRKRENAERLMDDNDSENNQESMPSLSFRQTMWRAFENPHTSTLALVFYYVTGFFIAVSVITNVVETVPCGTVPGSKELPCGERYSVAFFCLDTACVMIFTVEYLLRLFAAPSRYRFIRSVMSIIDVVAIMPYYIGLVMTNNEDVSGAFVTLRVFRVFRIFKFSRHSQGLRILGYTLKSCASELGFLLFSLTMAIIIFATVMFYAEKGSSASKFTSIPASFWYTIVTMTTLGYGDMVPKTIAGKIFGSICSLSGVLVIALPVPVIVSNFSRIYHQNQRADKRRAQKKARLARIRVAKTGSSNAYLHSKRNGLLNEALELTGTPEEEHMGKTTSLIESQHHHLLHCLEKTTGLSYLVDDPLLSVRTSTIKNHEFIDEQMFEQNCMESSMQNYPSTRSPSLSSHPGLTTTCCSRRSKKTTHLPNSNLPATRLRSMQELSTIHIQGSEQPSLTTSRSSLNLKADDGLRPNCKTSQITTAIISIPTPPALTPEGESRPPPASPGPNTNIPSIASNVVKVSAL
Protocol: For this experiment, a recombinant CHO-K1 cell line stably expressing the human Kv4.3/KChIP2.2 potassium channel was used. The cells used for this experiment were kept in continuous culture under standard conditions (37° C., air supplemented with 7% CO2). The CHO-K1 Kv4.3/KChIP2.2 cells were kept in Iscove s modified DMEM (Dulbecco's Modified Eagle's Medium) medium (IMEM) supplemented with 100 U/ml Penicillin, 100 μg/ml Streptomycin, 7% fetal calf serum (FCS), 2.5 μg/ml amphotericin, 400 μg/ml G418, and 400 μg/ml Zeocin™. Cells were passed every 3-4 days after detachment using a Trypsin solution. The quality of the cultured cells was guaranteed by vitality and contamination tests. The culture of the cells was performed as described in protocol D hereunder.
10 mM stock solutions of the compounds were prepared in DMSO. Solutions of the compounds were prepared by dilution of stock solution in bath solution. If the required stock solution volume was theoretically below 1 μl, bath solutions with higher compound concentration were used for dilution. The maximal DMSO concentration during experiments was 0.1% (v/v).
Activity of the human Kv4.3/KChIP2.2 channel was investigated using the patch clamp technique in its whole cell mode. This means that the current needed for clamping the whole cell expressing the K^+-channel protein to a specific potential was measured. Experiments were performed using a patch clamp set-up. Technical equipment needed for manipulation of the cells was placed on a vibration-isolated table and shielded with a Faraday cage to minimize electrical noise. The amplifier and control system were placed in a rack outside the Faraday cage. The system consisted of an EPC9 or EPC10 patch clamp amplifier (HEKA, Lambrecht, Germany), and the perfusion system DADVC8 (ALA Scientific, New York, USA) controlled by the Pulse software package (HEKA, Lambrecht, Germany) installed on a personal computer. The pipettes used for patch clamping were made of borosilicate glass.
Measurements were performed at room temperature (20-25° C.). In each experiment (i.e. each cell) only one concentration of the compounds was investigated no cumulative dosages were performed. Each cell acted as its own control. […]
Between voltage pulses the cell was clamped to a holding potential of −80 mV (inside). The test protocols are illustrated in FIG. 1 and Table 4. The test protocol illustrated in FIG. 1a was used to characterize the properties of the Kv4.3/KChIP2.2 channel and to check the quality of the individual patch clamp experiment (voltage control). […] Each test protocol consisted of 4 segments.
After the whole cell configuration was established a current-voltage curve (IV activation 1; FIG. 1a and Table 4a) was recorded under constant superfusion with bath solution to check for Kv4.3/KChIP2.2 expression and the quality of the individual patch clamp experiment (voltage control). Subsequently, 14 test pulses (series 1; FIG. 1b and Table 4b) were applied at 0.1 Hz under constant superfusion with bath solution. The protocol was initiated by a voltage jump to 100 mV (400 ms) to achieve full inactivation. Then the Kv4.3/KChIP2.2 channels were transferred to the open state by depolarization to +40 mV for 300 milliseconds (activation). Only cells generating current amplitudes between 1 nA and 50 nA were used for the experimental procedure. No or negligible rundown was observed.
Then, 36 test pulses (series 2) were applied at 0.1 Hz under constant superfusion with the compound dissolved in bath solution. Finally, another current-voltage curve was recorded in the presence of the compounds (IV activation 2).
Three different types of analysis were used: Inhibition at the peak current, inhibition of translocated charge and inhibition 75 ms after activation at +40 mV (sustained current). The peak current/charge/current at 75 ms was determined using the online analysis tool of the HEKA pulse software package. […]

melting point [°C] | IC50 [1] [µM] | Molecule | other results
138 to 164.7 |  | Cc1nc(Nc2ccc(Cl)cc2)sc1C(=O)NNc1ccc([N+](=O)[O-])cc1[N+](=O)[O-] | 
 | 1.26 | COc1cccc([C@@H](C)NC(=O)c2sc(Nc3ccc(Br)cc3)nc2C)c1 [Compound 21, 2-(4-bromo-phenylamino)-4-methyl-thiazole-5-carboxylic acid (R)-1-(3-methoxyphenyl)ethyl amide] | 
 | 2.18 | Cc1nc(Nc2ccc(Br)cc2)sc1C(=O)N[C@H]1CCC[C@@H]1OCc1ccccc1 [Compound 26, 2-(4-bromo-phenylamino)-4-methyl-thiazole-5-carboxylic acid (1S,2S)-2-(benzyloxycyclopent-1-yl) amide] | 
 | 1.06 | CCCN(Cc1ccc([N+](=O)[O-])cc1)C(=O)c1sc(Nc2ccc(Br)cc2)nc1C [Compound 28, 2-(4-bromo-phenylamino)-4-methyl-thiazole-5-carboxylic acid (4-nitro-benzyl)-propyl-amide] | 
 | 2.13 | Cc1nc(N(C)c2ccc(Br)cc2)sc1C(=O)N[C@@H]1CCC[C@H]1OCc1ccccc1 [Compound 29, 2-(4-bromo-phenyl-methylamino)-4-methyl-thiazole-5-carboxylic acid (1R,2R)-2-(benzyloxycyclopent-1-yl) amide] | 
 | 2.55 | Cc1ccccc1Nc1nc(C)c(C(=O)N[C@@H](C)c2ccc3ccccc3c2)s1 [Compound 32] | 
 | 3.06 | COc1ccc(Cl)cc1Nc1nc(C)c(C(=O)N[C@@H]2CCC[C@H]2OCc2ccccc2)s1 [Compound 35, 2-(5-chloro-2-methoxy-phenylamino)-4-methyl-thiazole-5-carboxylic acid (1R,2R)-2-(benzyloxycyclopent-1-yl) amide] | 
 | 1.8 | C[C@@H](NC(=O)c1csc(Nc2ccccc2)n1)c1ccc([N+](=O)[O-])cc1 [Compound 47, 2-phenylamino-thiazole-4-carboxylic acid 1-((R)-4-nitrophenyl-ethyl)-amide] | 
 | 3.95 | COc1ccccc1Nc1nc(C)c(C(=O)N[C@H](C)c2ccc3ccccc3c2)s1 [Compound 53, 2-(2-methoxy-phenylamino)-4-methyl-thiazole-5-carboxylic acid (R)-1-(2-naphtalen-2-yl-ethyl)-amide] | 
 | 11.2 | Cc1nc(Nc2ccc(Br)cc2)sc1C(=O)NCc1ccncc1 [Compound 57, 2-(4-bromo-phenylamino)-4-methyl-thiazole-5-carboxylic acid (pyridin-4-ylmethyl)-amide] | 
 | 4.33 | Cc1nc(Nc2ccc(Br)cc2)sc1C(=O)NCc1cccnc1 [Compound 58, 2-(4-bromo-phenylamino)-4-methyl-thiazole-5-carboxylic acid (pyridin-3-ylmethyl)-amide] | 
 | 3.06 | Cc1nc(Nc2ccc(Br)cc2)sc1C(=O)NCc1ccccn1 [Compound 59, 2-(4-bromo-phenylamino)-4-methyl-thiazole-5-carboxylic acid (pyridin-2-ylmethyl)-amide] | 
 | 1.53 | COc1ccc(CNC(=O)c2sc(Nc3ccc(Br)cc3)nc2C)cc1OC [Compound 61, 2-(4-bromo-phenylamino)-4-methyl-thiazole-5-carboxylic acid 3,4-dimethoxy-benzylamide] | 
 | 1.97 | Cc1nc(Nc2ccc(F)cc2)sc1C(=O)N[C@H]1CCC[C@@H]1OCc1ccccc1 [Compound 67, 2-(4-fluoro-phenylamino)-4-methyl-thiazole-5-carboxylic acid (1S,2S)-2-(benzyloxycyclopent-1-yl) amide] | 
131.7 to 140.6 |  | COc1ccccc1Nc1nc(C)c(C(=O)Cc2ccccc2)s1 [Compound 79, 1-[2-(2-methoxy-phenylamino)-4-methyl-thiazol-5-yl]-2-phenyl-ethanone] | 
93.4 to 95.8 |  | Cc1nc(Oc2ccccc2)sc1C(=O)N[C@H]1CCC[C@@H]1OCc1ccccc1 [Compound 80, 4-methyl-2-phenoxy-thiazole-5-carboxylicacid ((1S,2S)-2-benzyloxycyclopent-1-yl)amide] | 
192.5 to 194.9 |  | Cc1nc(Nc2ccc(N3CCOCC3)cc2)sc1C(=O)N[C@H]1CCC[C@@H]1OCc1ccccc1 [Compound 92, 4-methyl-2-(4-morpholin-4-yl-phenylamino)-thiazole-5-carboxylic acid ((1S,2S)-2-benzyloxycyclopent-1-yl) amide] | 
145.8 to 149 |  | COc1ccccc1N(C(C)=O)c1nc(C)c(C(=O)N[C@H]2CCC[C@@H]2OCc2ccccc2)s1 [Compound 129, 2-[acetyl-(2-methoxy-phenyl)-amino]-4-methyl-thiazole-5-carboxylic acid ((1S,2S)-2-benzyloxycyclopent-1-yl) amide] | 
60.3 to 62.4 |  | COc1ccccc1Nc1nc(C)c(C(=O)NC(C)c2ccccc2)s1 (centres unmarked) [Compound 130, 2-(2-methoxy-phenylamino)-4-methyl-thiazole-5-carboxylic acid (1-phenyl-ethyl)-amide] | 
57.7 to 59.6 |  | CC[C@@H](NC(=O)c1sc(Nc2ccccc2OC)nc1C)c1ccccc1 [Compound 131, 2-(2-methoxy-phenylamino)-4-methyl-thiazole-5-carboxylic acid ((R)-1-phenyl-propyl)-amide] | 
66.5 to 70.4 |  | CC[C@H](NC(=O)c1sc(Nc2ccccc2OC)nc1C)c1ccccc1 [Compound 132, 2-(2-methoxy-phenylamino)-4-methyl-thiazole-5-carboxylic acid ((S)-1-phenyl-propyl)-amide] | 
152.8 to 155.9 |  | COc1cccc(Nc2nc(C)c(C(=O)N[C@H]3CCC[C@@H]3OCc3ccccc3)s2)c1 [Compound 133, 2-(3-methoxy-phenylamino)-4-methyl-thiazole-5-carboxylic acid ((1S,2S)-2-benzyloxycyclopent-1-yl) amide] | 
219.1 to 226.7 |  | COc1ccccc1Nc1nc(C)c(C(=O)NCc2ccc(C(=O)N(C)C)cc2)s1 [Compound 137, 2-(2-methoxy-phenylamino)-4-methyl-thiazole-5-carboxylic acid 4-dimethylcarbamoyl-benzylamide] | 
 |  | COc1ccccc1Nc1nc(C)c(C(=O)N[C@H]2CCC[C@@H]2OCc2ccccc2)o1 [Compound 210, 2-(2-methoxy-phenylamino)-4-methyl-oxazole-5-carboxylic acid ((1S,2S)-2-benzyloxycyclopent-1-yl) amide] | remaining activity at 1 µM ([1]; remaining current measured after application of the compound and relative to the blank, read-out: Kv4.3 charge in %): 86%; remaining activity at 1 µM ([1]; remaining peak height measured after application of the compound and relative to the blank, read-out: Kv4.3 peak in %): 99%

Molecule | melting point [°C] | IC50 [1] [µM] | other results
2-(4-bromo-phenylamino)-4-methyl-thiazole-5-carboxylic acid naphth-1-yl methylamide [Compound 27] |  | 2.77 | 
